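Where inhibition never reached the appropriate level, the endpoint shown equals the highest concentration tested. Otherwise, values were interpolated linearly from a five-concentration, 48-hour dose response in 96-well plates. GI50 marks 50% less growth.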 Calls of active or inactive are those of the source. No stated cut-off is given here; in the data, active = GI50 up to about 1.1 µM and inactive = higher.
Tests used:
Assay in all cases: growth of human tumour cells (NCI), 48 h
SK-MEL-5 = test system: SK-MEL-5
MDA-N = test system: MDA-N
A549 = test system: A549
PC-3 = test system: PC-3
UO-31 = test system: UO-31
DU-145 = test system: DU-145
OVCAR-8 = test system: OVCAR-8
HOP-92 = test system: HOP-92
NCI-H23 = test system: NCI-H23
Hs-578T = test system: Hs-578T
SF-268 = test system: SF-268
NCI/ADR-RES = test system: NCI/ADR-RES
HCC 2998 = test system: HCC 2998
NCI-H226 = test system: NCI-H226
SK-MEL-28 = test system: SK-MEL-28
M14 = test system: M14
Malme-3M = test system: Malme-3M
MOLT-4 = test system: MOLT-4
CCRF-CEM = test system: CCRF-CEM
SR = test system: SR

`Cc1cc(-n2nnc(C(=O)O)c2-c2ccccc2)c2ccc(Cl)cc2n1` was tested, and the GI50 (SK-MEL-5) was > 100 µM (inactive), the GI50 (MDA-N) was > 100 µM (inactive) and the GI50 (A549) was > 100 µM (inactive). For the same compound, the GI50 (PC-3) was > 100 µM (inactive), the GI50 (UO-31) was > 100 µM (inactive) and the GI50 (DU-145) was > 100 µM (inactive). For the same compound, the GI50 (OVCAR-8) was > 100 µM (inactive), the GI50 (HOP-92) was > 100 µM (inactive) and the GI50 (NCI-H23) was > 100 µM (inactive). For the same compound, the GI50 (Hs-578T) was > 100 µM (inactive), the GI50 (SF-268) was > 100 µM (inactive) and the GI50 (NCI/ADR-RES) was > 100 µM (inactive). For the same compound, the GI50 (HCC 2998) was > 100 µM (inactive), the GI50 (NCI-H226) was > 100 µM (inactive) and the GI50 (SK-MEL-28) was > 100 µM (inactive). The GI50 (M14) was > 100 µM (inactive), the GI50 (Malme-3M) was > 100 µM (inactive) and the GI50 (MOLT-4) was 17.5 µM (inactive). The GI50 (CCRF-CEM) was > 100 µM (inactive).
In the case of `COc1ccc(OCC(=N/NC(=O)c2ccncc2)/N=C/c2ccncc2)cc1`, the GI50 (MDA-N) was 17.6 µM (inactive), the GI50 (A549) was > 100 µM (inactive) and the GI50 (PC-3) was > 100 µM (inactive). For the same compound, the GI50 (DU-145) was > 100 µM (inactive), the GI50 (OVCAR-8) was > 100 µM (inactive) and the GI50 (HOP-92) was 29.2 µM (inactive). For the same compound, the GI50 (NCI-H23) was > 100 µM (inactive), the GI50 (Hs-578T) was > 100 µM (inactive) and the GI50 (SF-268) was > 100 µM (inactive). For the same compound, the GI50 (NCI/ADR-RES) was 77.6 µM (inactive), the GI50 (HCC 2998) was > 100 µM (inactive) and the GI50 (NCI-H226) was 67.5 µM (inactive). For the same compound, the GI50 (SK-MEL-28) was 75.5 µM (inactive), the GI50 (M14) was 82 µM (inactive) and the GI50 (Malme-3M) was > 100 µM (inactive). The GI50 (MOLT-4) was 90.2 µM (inactive) and the GI50 (CCRF-CEM) was > 100 µM (inactive).
With `CCCC1C(C#N)(C#N)C(C#N)=C(N)C1(C)C(C)=O` (stereo unspecified) the GI50 (SK-MEL-5) was 65.2 µM (inactive), the GI50 (MDA-N) was 42.7 µM (inactive) and the GI50 (A549) was > 100 µM (inactive). The GI50 (PC-3) was > 100 µM (inactive), the GI50 (UO-31) was > 100 µM (inactive) and the GI50 (DU-145) was > 100 µM (inactive). For the same compound, the GI50 (OVCAR-8) was > 100 µM (inactive), the GI50 (HOP-92) was 36.3 µM (inactive) and the GI50 (NCI-H23) was > 100 µM (inactive). The GI50 (Hs-578T) was > 100 µM (inactive), the GI50 (SF-268) was > 100 µM (inactive) and the GI50 (NCI/ADR-RES) was > 100 µM (inactive). The GI50 (HCC 2998) was > 100 µM (inactive), the GI50 (NCI-H226) was 43.7 µM (inactive) and the GI50 (M14) was > 100 µM (inactive). For the same compound, the GI50 (Malme-3M) was 77.1 µM (inactive), the GI50 (MOLT-4) was > 100 µM (inactive) and the GI50 (CCRF-CEM) was > 100 µM (inactive).
For `O=[N+]([O-])C(=C(Nc1ccccc1)Nc1ccccc1)/C(Cl)=C(\Cl)[N+](=O)[O-]`, the GI50 (SK-MEL-5) was 2.02 µM (inactive), the GI50 (MDA-N) was 2.77 µM (inactive) and the GI50 (A549) was 10.8 µM (inactive). The GI50 (PC-3) was 5.65 µM (inactive), the GI50 (UO-31) was 3.07 µM (inactive) and the GI50 (DU-145) was 2.65 µM (inactive). The GI50 (OVCAR-8) was 1.44 µM (inactive), the GI50 (SR) was 1.11 µM (active) and the GI50 (NCI-H23) was 3.04 µM (inactive). For the same compound, the GI50 (Hs-578T) was 2.74 µM (inactive), the GI50 (SF-268) was 2.98 µM (inactive) and the GI50 (NCI/ADR-RES) was 3.81 µM (inactive). For the same compound, the GI50 (HCC 2998) was 12.2 µM (inactive), the GI50 (NCI-H226) was 12.7 µM (inactive) and the GI50 (SK-MEL-28) was 3.62 µM (inactive). The GI50 (M14) was 4.75 µM (inactive), the GI50 (Malme-3M) was 3.54 µM (inactive) and the GI50 (MOLT-4) was 2.43 µM (inactive). The GI50 (CCRF-CEM) was 2.86 µM (inactive).
For `CC1(CCCC2(C)CCNC2=O)OCCO1` (stereo unspecified), the GI50 (SK-MEL-5) was > 10 µM (inactive), the GI50 (MDA-N) was > 10 µM (inactive) and the GI50 (A549) was > 10 µM (inactive). The GI50 (PC-3) was > 10 µM (inactive), the GI50 (UO-31) was > 10 µM (inactive) and the GI50 (DU-145) was > 10 µM (inactive). For the same compound, the GI50 (OVCAR-8) was > 10 µM (inactive), the GI50 (SR) was > 10 µM (inactive) and the GI50 (NCI-H23) was > 10 µM (inactive). For the same compound, the GI50 (Hs-578T) was > 10 µM (inactive), the GI50 (SF-268) was > 10 µM (inactive) and the GI50 (NCI/ADR-RES) was > 10 µM (inactive). For the same compound, the GI50 (HCC 2998) was > 10 µM (inactive), the GI50 (NCI-H226) was > 10 µM (inactive) and the GI50 (SK-MEL-28) was > 10 µM (inactive). For the same compound, the GI50 (M14) was > 10 µM (inactive), the GI50 (Malme-3M) was > 10 µM (inactive) and the GI50 (MOLT-4) was > 10 µM (inactive). For the same compound, the GI50 (CCRF-CEM) was > 10 µM (inactive).
In the case of `C[n+]1c2ccccc2c(C(=O)Nc2ccc(S(=O)(=O)Nc3ncccn3)cc2)c2ccccc21`, the GI50 (SK-MEL-5) was 58.9 µM (inactive), the GI50 (MDA-N) was 47.4 µM (inactive) and the GI50 (A549) was > 100 µM (inactive). The GI50 (PC-3) was 57 µM (inactive), the GI50 (UO-31) was 75.5 µM (inactive) and the GI50 (DU-145) was > 100 µM (inactive). For the same compound, the GI50 (OVCAR-8) was > 100 µM (inactive), the GI50 (SR) was > 100 µM (inactive) and the GI50 (NCI-H23) was > 100 µM (inactive). For the same compound, the GI50 (Hs-578T) was > 100 µM (inactive), the GI50 (SF-268) was > 100 µM (inactive) and the GI50 (NCI/ADR-RES) was 32.5 µM (inactive). The GI50 (HCC 2998) was > 100 µM (inactive), the GI50 (NCI-H226) was 37.4 µM (inactive) and the GI50 (SK-MEL-28) was > 100 µM (inactive). For the same compound, the GI50 (M14) was > 100 µM (inactive), the GI50 (Malme-3M) was > 100 µM (inactive) and the GI50 (MOLT-4) was 25.8 µM (inactive).
For `COc1ccc(/C=C2\CN(C)Cc3c2nc(O)c(C#N)c3-c2ccc(OC)cc2)cc1`, the GI50 (SK-MEL-5) was > 100 µM (inactive), the GI50 (MDA-N) was 47.2 µM (inactive) and the GI50 (A549) was 44.6 µM (inactive). The GI50 (PC-3) was 44.4 µM (inactive), the GI50 (UO-31) was > 100 µM (inactive) and the GI50 (DU-145) was 97.5 µM (inactive). The GI50 (OVCAR-8) was 31.3 µM (inactive), the GI50 (HOP-92) was 25.2 µM (inactive) and the GI50 (NCI-H23) was > 100 µM (inactive). The GI50 (Hs-578T) was 35.1 µM (inactive), the GI50 (SF-268) was 26.7 µM (inactive) and the GI50 (NCI/ADR-RES) was 56.2 µM (inactive). The GI50 (NCI-H226) was > 100 µM (inactive), the GI50 (SK-MEL-28) was > 100 µM (inactive) and the GI50 (M14) was 39.7 µM (inactive). The GI50 (Malme-3M) was 12.5 µM (inactive), the GI50 (MOLT-4) was 42 µM (inactive) and the GI50 (CCRF-CEM) was 40.5 µM (inactive).
In the case of `CCCCn1c(O)nc2c(N)ncnc21`, the GI50 (SK-MEL-5) was > 100 µM (inactive), the GI50 (MDA-N) was > 100 µM (inactive) and the GI50 (A549) was > 100 µM (inactive). The GI50 (PC-3) was > 100 µM (inactive), the GI50 (UO-31) was > 100 µM (inactive) and the GI50 (DU-145) was > 100 µM (inactive). The GI50 (OVCAR-8) was > 100 µM (inactive), the GI50 (HOP-92) was > 100 µM (inactive) and the GI50 (NCI-H23) was > 100 µM (inactive). The GI50 (Hs-578T) was > 100 µM (inactive), the GI50 (SF-268) was > 100 µM (inactive) and the GI50 (NCI/ADR-RES) was > 100 µM (inactive). For the same compound, the GI50 (HCC 2998) was > 100 µM (inactive), the GI50 (NCI-H226) was > 100 µM (inactive) and the GI50 (SK-MEL-28) was > 100 µM (inactive). The GI50 (M14) was > 100 µM (inactive), the GI50 (Malme-3M) was > 100 µM (inactive) and the GI50 (CCRF-CEM) was > 100 µM (inactive).
